# Experimental data published in patent US20060276460A1, “Use of piperazine phenothiazine derivatives in the manufacture of a medicament with neuroprotector and/or neurotrophic effects on cns and/or pns” (priority 2003, published 2006).
# Columns and labels:
# cortical neurons [1] = assay: Neurotrophic assay, neurite outgrowth in cortical neuronal cultures; assay type: cell-based, Wistar rats; conditions: 200 nmol/l; 24 h exposure
# Excerpt: The neurotrophic effect i.e. the neurite outgrowth with flufenazine was investigated on both cortical and spinal cord neuronal cultures according to the protocol described by Lucius R, Sievers J. in Postnatal retinal ganglion cells in vitro: protection against reactive oxygen species (ROS)-induced axonal degeneration by cocultured astrocytes Brain Res Dec. 16, 1996;743(1-2):56-62.
# (§1) Two types of primary neuronal cell cultures i.e. cortical and spinal cord neurons are isolated from 15-17 days old foetuses of female Wistar rats and cultured in neurobasal/B27 medium until cell differentiation.
# The ability of flufenazine to induce neurite outgrowth is investigated both in cortical and spinal cord neuronal cultures after 24 h exposure to flufenazine.
# The neurite length as well as the percentage of cells with neurites are quantified by careful microscopic inspection. On cortex neurons type, the results are depicted in FIG. 4; the cortex neurotrophic effect of flufenazine (200 nmol/l) is expressed as an increase of 30% on neurites length compared to the neurites length in the control cortex neurons
# mesencephalic neurons = conditions: 250 nmol/l
# Procedure: Cortical neurons are involved in Alzheimer's disease and also in mesencephale neurons or dopaminergic neurons which are themselves involved in Parkinson's disease. (see also protocol described by Y. Mitsumotol, A. Watanabe, T. Miyauchi, F. Jimma, and T. Moriizumi in Stimulation of the regrowth of MPP+/damaged dopaminergic fibers by the treatment of mesencephalic cultures with basigin; J Neural Transm (2001) 108: 1127-1134).
# The neuroprotective activity is assessed on MPP+ induced mesencephalic neuron loss with flufenazine concentration of 250 nmol/l
# The cells are intoxicated by 2 micromol of MPP+ as neurotoxic during 24 h. The cell culture is then treated with 250 nm/l of flufenazine.
# The percentage of mesencephalic neuronal survival obtained when intoxicated cells cultures are incubated with flufenazine is compared to cell cultures without flufenazine.
# [2] = test system: spinal cord motoneuron cell culture; assay: Neuronal survival and proliferation of spinal cord motoneuron cell culture; assay type: cell-based, Wistar rats; conditions: 50, 100, 250 nmol/l; counted at 2-120 hours; compared to cultures with BDNF alone
# Procedure: In vitro studies were first conducted on spinal cord motoneurons which are involved in peripheral neuropathy diseases as for example amyotrophic lateral sclerose (ALS) according to protocols described by Martinou J. C., Martinou I., Kato A. C. in Cholinergic differentiation factor (CDF/LIF) promotes survival of isolated rat embryonic motoneurons in vitro.
# Cells cultures are incubated with different Fluphenazine N-Mustard dihydrochloride concentrations: 50, 100, 250 nmol/l.
# Neuronal survival is then monitored at different time points; 2, 24, 48, 72, 96, 120 hours by counting the number of cells under microscope.
# the percentage of neuronal survival obtained when cells cultures are incubated with flufenazine is compared to cell cultures incubated alone only with 50 microgram's of brain derived neurotrophic factor (BDNF).
# SOD mice = assay: Survival rate of SOD mice after oral administration; assay type: in vivo
# Procedure: In vivo studies were conducted on transgenic animals with ALS causing mutations, a model for neurodegenerative diseases according to protocols described by Gurney Me, Pu H, Chiu Ay, Dal Canto Mc, Polchow Cy, Alexander Dd, Caliendo J, Hentati A, Kwon Yw, Deng Hx, et al. in Motor neuron degeneration in mice that express a human Cu,Zn superoxide dismutase mutation. Science (1994) 264:1772-1775; and by Mohajeri Mh, Figlewicz Da, Bohn Mc in Selective loss of alpha motoneurons innervating the medial gastrocnemius muscle in a model of amyotrophic lateral sclerosis. Exp. Neurol. (1998) 150:329-336.
# Mice are used at 4 months of age i.e. about 2 weeks before the appearance of the first symptoms.
# They are genotyped for SOD1 gene using PCR method.
# Animals are assigned into four groups to receive a daily oral administration of 1)saline as control, 2) 0.1 mg/kg, 3) 1 mg/kg, 4) 10 mg/kg of flufenazine, until death by weakness and paralysis occurs.
# Survival rate was recorded on a daily basis.
# cortical neurons [3] = assay: Glutamic acid intoxication assay (LDH release); assay type: cell-based, Wistar rats
# Procedure: Further studies were conducted on cortical neurons intoxicated with glutamic acid according to the protocol described by Nilsen J. and Brinton R D in Impact of progestins on oestrogen-induced neuroprotection:synergy by progesterone and 19-norprogesterone and antagonism by medoxyprogesterone acetate. Endocrinology 143:205-212 2002.
# as §1
# The neuroprotective activity is assessed on glu-induced cortical neurons loss. The process of death is initiated by 10 min treatment of neuron cell cultures with neurotoxic concentration of glutamic acid at 100 micromol/l.
# The ability of flufenazine to reverse the death process is achieved by subsequent exposure of cells to flufenazine concentrations of 100 and 200 nmol/l. The quantity of LDH released is used to estimate the degree of intoxication and the decrease of quantity released is proportional at cellular resistance to Glu neurotoxicity.
# the percentage of neuronal survival obtained when intoxicated cells cultures are incubated with flufenazine is compared to cell cultures without flufenazine.
structure (smiles),measurement,setting,value
"OCCN1CCN(CCCN2c3ccccc3Sc3ccc(C(F)(F)F)cc32)CC1 [flufenazine, 4-[3-[2-(trifluoromethyl)-10H-phenothiazin-10-yl]propyl]-1-pyperazine-ethanol]",increase on neurites length compared to control cortex neurons,cortical neurons [1],30%
same,neurite expansion versus control neurons,mesencephalic neurons,longer neurite expansion than in control neurons
same,reversal of MPP+ induced neuronal loss,mesencephalic neurons,reverses MPP+ induced neuronal loss to the same extent as Riluzole
same,increase of TH positives cells,"mesencephalic neurons; after 2 micromol MPP+ during 24 h, observed after 48 hours",30%
same,percentage of neuronal survival,[2],increase regularly from 48 h until 120 h
same,survival of SOD mice compared to saline treated group,SOD mice; 0.1 mg/kg daily oral,enhanced the survival
same,survival of SOD mice compared to saline treated group,SOD mice; 1 mg/kg daily oral,enhanced the survival
same,survival of SOD mice compared to saline treated group,SOD mice; 10 mg/kg daily oral,adverse effect and induced a leftward shift in the survival curve
same,increase of percentage of neuronal survival after glutamic acid intoxication,"cortical neurons [3]; 200 nmol/l, after 10 min glutamic acid 100 micromol/l, compared to cultures without flufenazine",10%
same,effect on cell survival in the absence of neurotoxic compound,"cortical neurons [3]; no glutamic acid, FIG. 2 left part",no or very slight effect
